Test: mn = molality of the nth substance listed, in mol/kg
Conditions: 101 kPa, Liquid, Alternating current cell with electrodes

CCCCCCCC[N+](C)(C)CCCCCC[N+](C)(C)CCCCCCCC.[Br-].[Br-] + O
Conditions | electrical conductivity [S/m]
313.15 K, m1 = 0.1169 | 1.553
318.15 K, m1 = 0.00396 | 0.09519
318.15 K, m1 = 0.00782 | 0.2003
318.15 K, m1 = 0.01158 | 0.2945
318.15 K, m1 = 0.01525 | 0.381
318.15 K, m1 = 0.01883 | 0.4611
318.15 K, m1 = 0.02233 | 0.5339
318.15 K, m1 = 0.02574 | 0.6047
318.15 K, m1 = 0.02907 | 0.6691
318.15 K, m1 = 0.03233 | 0.7314
318.15 K, m1 = 0.03551 | 0.7874
318.15 K, m1 = 0.03862 | 0.8418
318.15 K, m1 = 0.04166 | 0.8941
318.15 K, m1 = 0.04463 | 0.9453
318.15 K, m1 = 0.04754 | 0.9898
318.15 K, m1 = 0.05038 | 1.036
318.15 K, m1 = 0.05589 | 1.12
318.15 K, m1 = 0.05856 | 1.154
318.15 K, m1 = 0.06117 | 1.192
318.15 K, m1 = 0.06373 | 1.221
318.15 K, m1 = 0.06624 | 1.254
318.15 K, m1 = 0.06869 | 1.281
318.15 K, m1 = 0.0711 | 1.313
318.15 K, m1 = 0.07346 | 1.338
318.15 K, m1 = 0.07577 | 1.367
318.15 K, m1 = 0.07804 | 1.392
318.15 K, m1 = 0.08027 | 1.412
318.15 K, m1 = 0.08245 | 1.437
318.15 K, m1 = 0.08459 | 1.458
318.15 K, m1 = 0.0867 | 1.474
318.15 K, m1 = 0.08876 | 1.498
318.15 K, m1 = 0.09078 | 1.51
318.15 K, m1 = 0.09277 | 1.532
318.15 K, m1 = 0.09473 | 1.547
318.15 K, m1 = 0.09665 | 1.567
318.15 K, m1 = 0.09853 | 1.582
318.15 K, m1 = 0.1004 | 1.591
318.15 K, m1 = 0.1022 | 1.609
318.15 K, m1 = 0.104 | 1.626
318.15 K, m1 = 0.1057 | 1.636
318.15 K, m1 = 0.1075 | 1.647
318.15 K, m1 = 0.1092 | 1.659
318.15 K, m1 = 0.1109 | 1.674
318.15 K, m1 = 0.1125 | 1.687
318.15 K, m1 = 0.1141 | 1.699
318.15 K, m1 = 0.1157 | 1.713
318.15 K, m1 = 0.1173 | 1.724
318.15 K, m1 = 0.1188 | 1.732
318.15 K, m1 = 0.1203 | 1.749
318.15 K, m1 = 0.1218 | 1.761
323.15 K, m1 = 0.00396 | 0.123
323.15 K, m1 = 0.00782 | 0.2241
323.15 K, m1 = 0.01158 | 0.3183
323.15 K, m1 = 0.01526 | 0.4132
323.15 K, m1 = 0.01884 | 0.5013
323.15 K, m1 = 0.02233 | 0.5818
323.15 K, m1 = 0.02575 | 0.6582
323.15 K, m1 = 0.02908 | 0.7289
323.15 K, m1 = 0.03234 | 0.7956
323.15 K, m1 = 0.03552 | 0.8617
323.15 K, m1 = 0.03863 | 0.9197
323.15 K, m1 = 0.04167 | 0.9784
323.15 K, m1 = 0.04464 | 1.033
323.15 K, m1 = 0.04755 | 1.084
323.15 K, m1 = 0.0504 | 1.133
323.15 K, m1 = 0.05591 | 1.222
323.15 K, m1 = 0.05858 | 1.262
323.15 K, m1 = 0.06119 | 1.299
323.15 K, m1 = 0.06375 | 1.336
323.15 K, m1 = 0.06625 | 1.367
323.15 K, m1 = 0.06871 | 1.396
323.15 K, m1 = 0.07112 | 1.427
323.15 K, m1 = 0.07348 | 1.453
323.15 K, m1 = 0.07579 | 1.485
323.15 K, m1 = 0.07806 | 1.514
323.15 K, m1 = 0.08029 | 1.542
323.15 K, m1 = 0.08247 | 1.564
323.15 K, m1 = 0.08461 | 1.59
323.15 K, m1 = 0.08672 | 1.613
323.15 K, m1 = 0.08878 | 1.634
323.15 K, m1 = 0.09081 | 1.651
323.15 K, m1 = 0.0928 | 1.671
323.15 K, m1 = 0.09475 | 1.694
323.15 K, m1 = 0.09667 | 1.71
323.15 K, m1 = 0.09855 | 1.728
323.15 K, m1 = 0.1004 | 1.745
323.15 K, m1 = 0.1022 | 1.761
323.15 K, m1 = 0.104 | 1.776
323.15 K, m1 = 0.1058 | 1.788
323.15 K, m1 = 0.1075 | 1.804
323.15 K, m1 = 0.1092 | 1.816
323.15 K, m1 = 0.1109 | 1.832
323.15 K, m1 = 0.1125 | 1.841
323.15 K, m1 = 0.1141 | 1.854
323.15 K, m1 = 0.1157 | 1.866
323.15 K, m1 = 0.1173 | 1.881
323.15 K, m1 = 0.1188 | 1.893
323.15 K, m1 = 0.1203 | 1.901
323.15 K, m1 = 0.1218 | 1.917
